Results from patent US3994974A, “α-Aminomethylbenzyl alcohol derivatives” (Yamanouchi Pharmaceutical Co., Ltd., priority 1972, dated 1976).
Converted amounts (≈) assume the structure as drawn. Structures can show the parent of a compound that is named as a salt. Where two headings read alike, the source gives them in different places.

Columns and labels:
[1] = system: isolated bronchial smooth muscle; assay: Activity on isolated bronchial smooth muscle (in vitro test), histamine dihydrochloride as spasmogen (Anti-histamine); type: cell-based, guinea pig; conditions: for EC50: Cavia porcellus, read-out: Anti-histamine ED50; for Anti-histamine relative activity: relative to control E (trimetoquinol) = 1.0, ED50 ratio, smaller = more potent
Protocol: (§1) Activity on isolated bronchial smooth muscle (in vitro test)
(§2) The trachea of a guinea pig was cut spirally and the isolated bronchial preparation was suspended in Magnus bath. Tyrode's solution was filled in a 50 ml bath and kept at 37° C. Then, 10-^5 g/ml of histamine dihydrochloride or methacholine chloride was added to a bath as spasmogen. After the contraction of the trachea reached a plateau, a test substance shown in the below-showing table was added to the preparation, cumulatively. The concentration producing 50% relaxation of the contracted bronchial muscle was designated as ED50.

[2] = system: isolated bronchial smooth muscle; assay: Activity on isolated bronchial smooth muscle (in vitro test), methacholine chloride as spasmogen (Anti-methacholine Chloride); type: cell-based, guinea pig; conditions: for EC50: Cavia porcellus, read-out: Anti-methacholine Chloride ED50; for Anti-methacholine Chloride relative activity: relative to control E (trimetoquinol) = 1.0, ED50 ratio, smaller = more potent
Protocol: as §1, §2

[3] = system: Histamine-asthma; assay: Activity on experimental asthma (in vivo test), Histamine-asthma; design: species or system guinea pig; conditions: Cavia porcellus, sc, read-out: Histamine-asthma ED50
Protocol: (§3) Activity on experimental asthma (in vivo test)
(§4) A guinea pig was placed in a 11 liter glass chamber and exposed to the spasmogen by means of a nebulizer. […] Drugs were administered subcutaneously to animals 30 minutes before application of the spasmogen. […] ED50 was calculated by the method of Litchfield-Wilcoxon [J. Pharmacol. Exptl. Therap, 96, 99-113 (1949)].

[4] = system: Methacholine chloride-asthma; assay: Activity on experimental asthma (in vivo test), Methacholine chloride-asthma; design: species or system guinea pig; conditions: Cavia porcellus, sc, read-out: Methacholine chloride-asthma Ed50
Protocol: as §3, §4

[5] = molecular target: T1, β1 (Canis lupus familiaris, UniProt P79148); assay: β1-action: heart rate response (ΔHR) in anesthetized dogs; type: in vivo, Mongrel dogs; conditions: intravenous
T1 construct: Mongrel dogs of either sex; from tissue; host or cells: heart of the living anesthetized mongrel dog (heart rate)
T1 sequence (P79148 whole entry): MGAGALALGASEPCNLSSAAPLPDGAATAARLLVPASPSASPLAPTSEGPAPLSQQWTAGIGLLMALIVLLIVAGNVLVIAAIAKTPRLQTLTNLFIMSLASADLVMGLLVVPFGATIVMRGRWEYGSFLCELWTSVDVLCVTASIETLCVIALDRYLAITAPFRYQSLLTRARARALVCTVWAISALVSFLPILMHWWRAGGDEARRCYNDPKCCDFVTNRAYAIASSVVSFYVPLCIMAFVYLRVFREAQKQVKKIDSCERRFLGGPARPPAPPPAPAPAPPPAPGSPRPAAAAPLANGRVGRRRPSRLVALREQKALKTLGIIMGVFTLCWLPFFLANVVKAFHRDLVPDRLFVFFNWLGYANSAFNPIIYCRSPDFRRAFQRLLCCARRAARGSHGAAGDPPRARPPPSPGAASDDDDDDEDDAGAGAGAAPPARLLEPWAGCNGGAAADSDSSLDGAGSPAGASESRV
Protocol: Mongrel dogs of either sex weighing about 10 Kg were anesthetized with pentobarbital Na, 30 mg/Kg intravenously. Arterial blood pressure was measured from a cannula in the right femoral artery and the pulse pressure used to trigger a ratemeter for a record of heart rate. (β1.action). Intravenous injections were made through a cannula in a femoral vein, and ED50bpm values were obtained from the does-response (ΔHR) curves. ED50bpm vs. ED50 ratios mean its own selectivity.

[6] = system: β1 /β2; assay: Selectivity (ratio of β1/β2), ED50bpm vs. ED50 in anesthetized dogs; type: in vivo, Mongrel dogs
[7] = molecular target: T2, β2 (Canis lupus familiaris, UniProt P54833); assay: β2-action: inhibition of histamine-induced increase in bronchial resistance in anesthetized dogs; type: in vivo, Mongrel dogs; conditions: dog, intravenous, cumulative, 5 minutes before histamine 10 μg/Kg i.v.
T2 construct: Mongrel dogs of either sex; from tissue; host or cells: airways of the living anesthetized mongrel dog (bronchial resistance)
T2 sequence (P54833 whole entry): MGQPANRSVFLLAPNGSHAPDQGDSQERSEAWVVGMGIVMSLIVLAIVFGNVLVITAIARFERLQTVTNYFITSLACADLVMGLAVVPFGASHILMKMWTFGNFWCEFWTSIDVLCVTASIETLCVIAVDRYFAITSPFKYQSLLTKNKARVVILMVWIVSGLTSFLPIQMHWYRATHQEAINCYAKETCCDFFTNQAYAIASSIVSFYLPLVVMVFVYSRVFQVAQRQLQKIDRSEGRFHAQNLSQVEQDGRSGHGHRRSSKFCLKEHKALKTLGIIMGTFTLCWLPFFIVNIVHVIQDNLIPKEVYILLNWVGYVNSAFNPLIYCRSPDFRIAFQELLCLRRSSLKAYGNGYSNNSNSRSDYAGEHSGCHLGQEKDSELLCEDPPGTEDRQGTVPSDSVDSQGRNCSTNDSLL

[8] = subcutaneous, 30 minutes before 0.01% histamine dihydrochloride spray, Litchfield-Wilcoxon
[9] = concentration producing 50% relaxation of contracted bronchial muscle, 10^-5 g/ml histamine dihydrochloride, guinea pig trachea, 37° C
[10] = concentration producing 50% relaxation of contracted bronchial muscle, 10^-5 g/ml methacholine chloride, guinea pig trachea, 37° C
[11] = subcutaneous, 30 minutes before methacholine chloride spray, Litchfield-Wilcoxon

Compound: CC(Cc1ccc(O)cc1)NCC(O)c1ccc(O)c(NC=O)c1 (single isomer, unassigned) [Example 8, 3-formylamino-4-hydroxy-α-[N-(1-methyl-2-p-hydroxyphenylethyl)aminomethyl]benzyl alcohol [A] . 1/2 fumarate]
- EC50 [1]: 0.00094 µg/mL
- Anti-histamine relative activity [1]: 0.35
- EC50 [2]: 0.011 µg/mL
- Anti-methacholine Chloride relative activity [2]: 0.52
- ED50 [3, 8]: 1.9 µg/kg
- ED50 [4]: 2.6 µg/kg
- β1-action ED50bpm [5]: 0.26 µg/kg
- Selectivity (ratio of β1/β2) [6]: 8.38

Compound: COc1ccc(CC(C)NCC(O)c2ccc(O)c(NC=O)c2)cc1 (single isomer, unassigned) [Example 22, 3-formylamino-4-hydroxy-α-[N-(1-methyl-2-p-methoxyphenylethyl)aminomethyl]benzyl alcohol [A] . 1/2 fumarate]
- EC50 [1]: 0.00046 µg/mL
- Anti-histamine relative activity [1]: 0.17
- EC50 [2]: 0.0046 µg/mL
- Anti-methacholine Chloride relative activity [2]: 0.22
- ED50 [3]: 3.6 µg/kg
- β1-action ED50bpm [5]: 0.72 µg/kg

Compound: CC(=O)Nc1cc(C(O)CNC(C)C)ccc1O.Cl (stereo not drawn) [3-acetylamino-4-hydroxy-α-(isopropylaminomethyl)benzyl alcohol hydrochloride]
- EC50 [1, 9]: 1 µg/mL
- Anti-histamine relative activity [1]: 370
- EC50 [2, 10]: > 100 µg/mL
- Anti-methacholine Chloride relative activity [2]: > 4760

Compound: CC(CCc1ccc(O)cc1)NCC(O)c1ccc(O)c(NC=O)c1 (stereo not drawn) [Example 19, 3-formylamino-4-hydroxy-α-[N-(1-methyl-3-p-hydroxyphenylpropyl)aminomethyl] benzyl alcohol . 1/2 fumarate . mono-hydrate]
- EC50 [1, 9]: 0.00086 µg/mL
- Anti-histamine relative activity [1]: 0.32
- EC50 [2, 10]: 0.0089 µg/mL
- Anti-methacholine Chloride relative activity [2]: 0.42
- ED50 [3, 8]: 1.4 µg/kg
- ED50 [4, 11]: 8.1 µg/kg
- β1-action ED50bpm [5]: 0.59 µg/kg
- Selectivity (ratio of β1/β2) [6]: 12

Compound: CC(C)NCC(O)c1ccc(O)c(N)c1 (stereo not drawn) [Known compound A, 3-amino-4-hydroxy-α-isopropylaminomethylbenzyl alcohol]
- EC50 [1]: 0.3 µg/mL (≈ 1.43 µM)
- Anti-histamine relative activity [1]: 111
- EC50 [2]: 3 µg/mL (≈ 14.3 µM)
- Anti-methacholine Chloride relative activity [2]: 143

Compound: CCOC(=O)Nc1cc(C(O)CNC(C)C)ccc1O (stereo not drawn) [Known compound B, 3-ethoxycarbonylamino-4-hydroxy-α-isopropylaminomethylbenzyl alcohol]
- EC50 [1, 9]: 5 µg/mL (≈ 17.7 µM)
- Anti-histamine relative activity [1]: 185
- EC50 [2, 10]: > 100 µg/mL
- Anti-methacholine Chloride relative activity [2]: > 4760

Compound: CNC(=O)Nc1cc(C(O)CNC(C)C)ccc1O (stereo not drawn) [Known compound C, 4-hydroxy-3-(N'-methylureido)-α-isopropylaminomethylbenzyl alcohol]
- EC50 [1, 9]: 0.09 µg/mL (≈ 0.337 µM)
- Anti-histamine relative activity [1]: 3.33
- EC50 [2, 10]: > 100 µg/mL
- Anti-methacholine Chloride relative activity [2]: > 4760

Compound: CC(C)(C)NCC(O)c1ccc(O)c(CO)c1 (stereo not drawn) [Known compound D, 4-hydroxy-3-hydroxymethyl-α-tert-butylaminomethylbenzyl alcohol]
- EC50 [1, 9]: 0.01 µg/mL (≈ 0.0418 µM)
- Anti-histamine relative activity [1]: 3.7
- EC50 [2, 10]: 0.096 µg/mL (≈ 0.401 µM)
- Anti-methacholine Chloride relative activity [2]: 4.57
- ED50 [7]: 1.4 µg/kg
- β1-action ED50bpm [5]: 7.0 µg/kg
- Selectivity (ratio of β1/β2) [6]: 5.0

Compound: COc1cc(C[C@@H]2NCCc3cc(O)c(O)cc32)cc(OC)c1OC [Known compound E, l-1-(3,4,5-trimethoxybenzyl)-6,7-dihydroxy 1,2,3,4-tetrahydroisoquinoline hydrochloride]
- EC50 [1, 9]: 0.0027 µg/mL
- Anti-histamine relative activity [1]: 1.0
- EC50 [2, 10]: 0.021 µg/mL
- Anti-methacholine Chloride relative activity [2]: 1.0
- ED50 [3, 8]: 11.3 µg/kg
- ED50 [4, 11]: 12.4 µg/kg

Compound: CC(C)NCC(O)c1ccc(O)c(O)c1 (stereo not drawn) [Known compound F, α-(isopropylaminomethyl) protocatechuyl alcohol]
- EC50 [1, 9]: 0.0055 µg/mL (≈ 0.026 µM)
- Anti-histamine relative activity [1]: 2.04
- EC50 [2, 10]: 0.028 µg/mL (≈ 0.133 µM)
- Anti-methacholine Chloride relative activity [2]: 1.33
- ED50 [3, 8]: 15.7 µg/kg
- ED50 [4, 11]: 11.2 µg/kg
